Reference: patent US8680152B2, “Cathepsin inhibitors for the treatment of bone cancer and bone cancer pain” (Virobay, Inc., priority 2011, dated 2014)

Experiments:
human osteoclasts = assay: Inhibition of bone resorption in vitro (human osteoclasts on bovine bone slices); type: cell-based; settings: CTX/TRACP5b, FIG. 7
Procedure: FIG. 7. Inhibition of Bone Resorption In Vitro. […] Compounds of the present invention were added to cultured human differentiated bone marrow-derived osteoclasts cultured on bovine bone slices allowing them to resorb bone. Tartrate-resistant acid phosphatase 5b activity (TRACP 5b) was measured in the culture medium as an index of the number of osteoclasts formed in each well, and C-terminal cross-linked telopeptides of type 1 collagen (CTX) was measured in the culture medium to quantitate bone resorption. […] The irreversible protease inhibitor E64 as well as the reversible specific cathepsin K protease inhibitor odanacatib were included as assay controls.
Compound A was assessed in an in vitro assay for its efficacy in blocking resorption activity of human osteoclasts in vitro. Bone marrow-derived human osteoclast precursor cells were cultured on bovine bone slices for 7 days in conditions that allowed osteoclast differentiation, and allowing them to differentiate into bone-resorbing osteoclasts. After completion of osteoclast differentiation at day 7, the culture medium was removed and new culture medium for assessing osteoclast activity was added. Test compounds including Compound A was added to the cultures at this stage on day 7. Cultures were then allowed to continue for an additional 3 days allowing them to resorb bone. Concentrations of Compound assessed were 1, 3, 10, 30, 100, 300, and 1000 nM in 8 replicates. Tartrate-resistant acid phosphatase 5b activity (TRACP 5b) was measured from the culture medium collected on day 7 indicating the number of mature osteoclasts formed in each well before adding compounds. C-terminal cross-linked telopeptides of type 1 collagen (CTX) were measured form the culture medium collected at day 10 to quantitate bone resorption during days 7-10. […] The study was performed in […] with each containing a baseline group including vehicle, a control group with a reference compound E64, and 7 concentrations of the test compound to determine an EC50 for inhibition of resorption activity.

cathepsin B = cathepsin B (Homo sapiens, UniProt P07858); assay: Cathepsin B assay; type: biochemical
Procedure: Solutions of test compounds in varying concentrations were prepared in 101 μL of dimethyl sulfoxide (DMSO) and then diluted into assay buffer (40 μL, comprising: N,N-bis(2-hydroxyethyl)-2-aminoethanesulfonic acid (BES), 50 mM (pH 6); polyoxyethylenesorbitan monolaurate, 0.05%; and dithiothreitol (DTT), 2.5 mM). Human cathepsin B (0.025 pMoles in 25 μL of assay buffer) was added to the dilutions. The assay solutions were mixed for 5-10 seconds on a shaker plate, covered and incubated for 30 min at room temperature. Z-FR-AMC (20 nMoles in 25 μL of assay buffer) was added to the assay solutions and hydrolysis was followed spectrophotometrically at (λ 460 nm) for 5 min. Apparent inhibition constants (Ki) were calculated from the enzyme progress curves using standard mathematical models.

Human cathepsin S = Human cathepsin S (Homo sapiens, UniProt P25774); assay: Cathepsin S assay; type: biochemical
Human cathepsin S, sequence (P25774 115-331): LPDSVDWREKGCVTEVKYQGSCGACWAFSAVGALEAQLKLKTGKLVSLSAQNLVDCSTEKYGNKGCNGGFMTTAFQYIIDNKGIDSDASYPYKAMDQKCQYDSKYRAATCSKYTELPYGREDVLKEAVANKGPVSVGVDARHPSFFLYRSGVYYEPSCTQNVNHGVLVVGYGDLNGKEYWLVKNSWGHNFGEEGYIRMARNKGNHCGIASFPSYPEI
Procedure: Solutions of test compounds in varying concentrations were prepared in 10 μL of dimethyl sulfoxide (DMSO) and then diluted into assay buffer (40 μL, comprising: MES, 50 mM (pH 6.5); EDTA, 2.5 mM; and NaCl, 100 mM); β-mercaptoethanol, 2.5 mM; and BSA, […]. Human cathepsin S (0.05 pMoles in 25 μL of assay buffer) was added to the dilutions. The assay solutions were mixed for 5-10 seconds on a shaker plate, covered and incubated for 30 min at room temperature. Z-Val-Val-Arg-AMC (4 nMoles in 25 μL of assay buffer containing 10% DMSO) was added to the assay solutions and hydrolysis was followed spectrophotometrically (at λ 460 nm) for 5 min. Apparent inhibition constants (Ki) were calculated from the enzyme progress curves using standard mathematical models.

[1] = test system: multiple human cathepsin enzymes; assay: Cathepsin inhibitory profile on multiple cathepsin enzymes; type: biochemical
Excerpt: FIG. 1. […] Methods are similar to those set forth in the Biological Examples.

Human Cathepsin V = Human Cathepsin V (Homo sapiens, UniProt O60911); assay: Cathepsin V assay; type: biochemical; settings: for inhibition at 0.1 µM: single data point of 100 nM; for IC50: tested at one concentration, 100 nM
Human Cathepsin V, sequence (O60911 114-334): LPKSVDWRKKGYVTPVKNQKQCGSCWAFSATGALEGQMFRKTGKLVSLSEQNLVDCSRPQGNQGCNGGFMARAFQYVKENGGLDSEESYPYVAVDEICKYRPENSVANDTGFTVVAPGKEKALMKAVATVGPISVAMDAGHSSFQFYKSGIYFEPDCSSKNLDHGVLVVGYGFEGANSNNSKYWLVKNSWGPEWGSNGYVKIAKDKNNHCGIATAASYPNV
Procedure: The assays were performed similarly to those described above. Human Cathepsin V: The buffer used to assay this enzyme consisted of: 50 mM MES (pH 6.5), 2.5 mM DTT, 2.5 mM EDTA, 100 mM NaCl, 0.01% BSA and 10% DMSO. Recombinant human cathepsin V was supplied at 2.0 nM. Substrate, Z-Phe-Arg-AMC, was supplied at 25 μM. Apparent inhibition constants (Ki) were calculated from the enzyme progress curves using standard mathematical models.

cathepsin L = cathepsin L (Homo sapiens, UniProt P07711); assay: Cathepsin L assay; type: biochemical; settings: for inhibition at 0.1 µM: single data point of 100 nM; for IC50: tested at one concentration, 100 nM
cathepsin L, sequence (P07711 114-333): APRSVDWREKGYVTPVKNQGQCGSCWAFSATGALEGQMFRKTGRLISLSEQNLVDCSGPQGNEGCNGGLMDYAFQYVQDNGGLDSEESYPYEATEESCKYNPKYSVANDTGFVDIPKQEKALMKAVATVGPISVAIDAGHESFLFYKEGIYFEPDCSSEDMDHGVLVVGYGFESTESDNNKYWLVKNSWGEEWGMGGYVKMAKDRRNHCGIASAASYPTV
Procedure: Solutions of test compounds in varying concentrations were prepared in 10 μL of dimethyl sulfoxide (DMSO) and then diluted into assay buffer (40 μL, comprising: MES, 50 mM (pH 5.5); EDTA, 2.5 mM; and DTT, 2.5 mM). Human cathepsin L (0.05 pMoles in 25 μL of assay buffer) was added to the dilutions. The assay solutions were mixed for 5-10 seconds on a shaker plate, covered and incubated for 30 min at room temperature. Z-Phe-Arg-AMC (1 nMoles in 25 μL of assay buffer) was added to the assay solutions and hydrolysis was followed spectrophotometrically at (λ 460 nm) for 5 min. Apparent inhibition constants (Ki) were calculated from the enzyme progress curves using standard mathematical models.

IC50 (cathepsin B) [nM] | IC50 (Human cathepsin S) [nM] | inhibition at 0.1 µM (Human Cathepsin V) [%] | IC50 (Human Cathepsin V) [nM] | inhibition at 0.1 µM (cathepsin L) [%] | IC50 (cathepsin L) [nM] | inhibition at 0.1 µM (cathepsin B; one concentration, 100 nM) [%] | melting point [°C] | Structure (SMILES) | inhibition of bone resorption in vitro (human osteoclasts) | cathepsin inhibitory profile on multiple cathepsin enzymes [1]
 |  |  |  |  |  |  |  | CC[C@H](NC(=O)[C@H](CS(=O)(=O)c1cccc(S(C)(=O)=O)c1)N[C@@H](c1ccc(F)cc1)C(F)(F)F)C(=O)C(=O)NC1CC1 [Compound B, (S)—N-Cyclopropyl-3-((R)-3-((3-(methylsulfonyl)phenyl)sulfonyl)-2-(((S)-2,2,2-trifluoro-1-(4-fluorophenyl)ethyl)amino)propanamido)-2-oxopentanamide] | inhibit bone resorption in vitro, with similar potency to Compound A | 
23 | 0.267 | 63 | < 100 | 75 | < 100 |  |  | CC[C@H](NC(=O)[C@H](CC(F)(F)CC1CC1)NCC(F)(F)Oc1ccc(F)cc1)C(=O)C(=O)NC1CC1 [Compound D, (S)-5-cyclopropyl-N-((S)-1-(cyclopropylamino)-1,2-dioxopentan-3-yl)-2-(2,2-difluoro-2-(4-fluorophenoxy)ethylamino)-4,4-difluoropentanamide] | inhibit bone resorption in vitro, with similar potency to Compound A | very favorable cathepsin inhibitory profile
< 100 | 0.332 | ≥ 98 | < 100 | ≥ 98 | < 100 | ≥ 98 |  | CC[C@H](NC(=O)[C@H](CC(F)(F)CC1CC1)N[C@@H](c1ccc(F)cc1)C(F)(F)F)C(=O)C(=O)NC1CC1 [Compound E, (S)-5-cyclopropyl-N—((S)-1-(cyclopropylamino)-1,2-dioxopentan-3-yl)-4,4-difluoro-2-(((S)-2,2,2-trifluoro-1-(4-fluorophenyl)ethyl)amino)pentanamide] | inhibit bone resorption in vitro, with similar potency to Compound A | 
 |  |  |  |  |  |  | 152.5 to 153.5 | CC[C@H](NC(=O)[C@H](CCS(C)(=O)=O)N[C@@H](c1ccc(F)cc1)C(F)(F)F)C(=O)C(=O)NC1CC1 [Example 1, N-cyclopropyl-3S-{4-methanesulfonyl-2S-[2,2,2-trifluoro-1S-(4-fluoro-phenyl)-ethylamino]-butyrylamino}-2-oxo-pentanamide] |  | 
